Data published in US9593108B2, “Compounds and methods for antiviral treatment” (PTC Therapeutics, Inc., priority 2009, dated 2017).

Experiments:
[1] = test system: HCV replicon RNA (GenBank Accession No. AJ242654); assay: HCV Replicon Assay (replicon RNA reduction and/or Fluc reporter signal); assay type: cell-based, Hepatitis C virus; details: Hepatitis C virus, 72 h, replicon-containing cells cultured with test compound for up to 3 days
Procedure, shortened: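 IC50 values mostly reflect the drop in replicon RNA, though Fluc reporter signal may also be used. Compound incubated with cells carrying the bicistronic replicon for as long as 3 days; interferon served as positive control.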

SMILES | IC50 [1] [nM] | melting point [°C]
N#Cc1cnc2c(c1)c(C#N)c(-c1ccc(S(=O)(=O)NC3(C(F)(F)F)CC3)cn1)n2C1CCC1 [Cpd 111, 6-(3,5-dicyano-1-cyclobutyl-1H-pyrrolo[2,3-b]pyridin-2-yl)-N-[1-(trifluoromethyl)cyclopropyl]pyridine-3-sulfonamide] | < 500 | 207 to 208
N#Cc1cnc2c(c1)c(C#N)c(-c1ccc(S(=O)(=O)NC3(C(F)(F)F)CC3)cc1)n2C1CCC1 [Cpd 112, 4-(3,5-dicyano-1-cyclobutyl-1H-pyrrolo[2,3-b]pyridin-2-yl)-N-[1-(trifluoromethyl)cyclopropyl]benzenesulfonamide] | < 500 | 231 to 233
CC1(NS(=O)(=O)c2ccc(-c3c(C#N)c4cc(C#N)cnc4n3C3CCC3)nc2)CC1 [Cpd 113, 6-(3,5-dicyano-1-cyclobutyl-1H-pyrrolo[2,3-b]pyridin-2-yl)-N-(1-methylcyclopropyl)pyridine-3-sulfonamide] | < 500 | 198 to 200
CC1(NS(=O)(=O)c2cnc(-c3c(C#N)c4cc(C#N)cnc4n3C3CCC3)nc2)CC1 [Cpd 114, 2-(3,5-dicyano-1-cyclobutyl-1H-pyrrolo[2,3-b]pyridin-2-yl)-N-(1-methylcyclopropyl)pyrimidine-5-sulfonamide] | < 500 | 229 to 231
C[C@H](NS(=O)(=O)c1ccc(-c2c(C#N)c3cc(C4CC4)cnc3n2C2CCC2)cc1)C(F)(F)F [Cpd 115, 4-(3-cyano-1-cyclobutyl-5-cyclopropyl-1H-pyrrolo[2,3-b]pyridin-2-yl)-N-[(2S)-1,1,1-trifluoropropan-2-yl]benzenesulfonamide] | 500 to 2000 | 196 to 203
C[C@@H](NS(=O)(=O)c1ccc(-c2c(C#N)c3cc(C4CC4)cnc3n2C2CCC2)cc1)C(F)(F)F [Cpd 116, 4-(3-cyano-1-cyclobutyl-5-cyclopropyl-1H-pyrrolo[2,3-b]pyridin-2-yl)-N-[(2R)-1,1,1-trifluoropropan-2-yl]benzenesulfonamide] | < 500 | 190 to 195
C[C@H](NS(=O)(=O)c1ccc(-c2c(C#N)c3cc(C4CC4)cnc3n2C2CCC2)nc1)C(F)(F)F [Cpd 117, 6-(3-cyano-1-cyclobutyl-5-cyclopropyl-1H-pyrrolo[2,3-b]pyridin-2-yl)-N-[(2S)-1,1,1-trifluoropropan-2-yl]pyridine-3-sulfonamide] | < 500 | 136 to 144
C[C@@H](NS(=O)(=O)c1ccc(-c2c(C#N)c3cc(C4CC4)cnc3n2C2CCC2)nc1)C(F)(F)F [Cpd 118, 6-(3-cyano-1-cyclobutyl-5-cyclopropyl-1H-pyrrolo[2,3-b]pyridin-2-yl)-N-[(2R)-1,1,1-trifluoropropan-2-yl]pyridine-3-sulfonamide] | < 500 | 138 to 147
C[C@H](NS(=O)(=O)c1cnc(-c2c(C#N)c3cc(C4CC4)cnc3n2C2CCC2)nc1)C(F)(F)F [Cpd 119, 2-(3-cyano-1-cyclobutyl-5-cyclopropyl-1H-pyrrolo[2,3-b]pyridin-2-yl)-N-[(2S)-1,1,1-trifluoropropan-2-yl]pyrimidine-5-sulfonamide] | < 500 | 176 to 183
CC(C)(NS(=O)(=O)c1ccc(-c2c(C#N)c3cc(C4CC4)cnc3n2C2CCC2)cc1)C(F)(F)F [Cpd 121, 4-(3-cyano-1-cyclobutyl-5-cyclopropyl-1H-pyrrolo[2,3-b]pyridin-2-yl)-N-(1,1,1-trifluoro-2-methylpropan-2-yl)benzenesulfonamide] | < 500 | 207 to 212
C[C@H](NS(=O)(=O)c1ccc(-c2c(C#N)c3cc(OC(F)F)cnc3n2C2CCC2)nc1)C(F)(F)F [Cpd 122, 6-[3-cyano-1-cyclobutyl-5-(difluoromethoxy)-1H-pyrrolo[2,3-b]pyridin-2-yl]-N-[(2S)-1,1,1-trifluoropropan-2-yl]pyridine-3-sulfonamide] | < 500 | 155 to 156
N#Cc1c(-c2ccc(S(=O)(=O)NC3(C(F)(F)F)CC3)cn2)n(C2CCC2)c2ncc(C3CC3)cc12 [Cpd 124, 6-(3-cyano-1-cyclobutyl-5-cyclopropyl-1H-pyrrolo[2,3-b]pyridin-2-yl)-N-[1-(trifluoromethyl)cyclopropyl]pyridine-3-sulfonamide] | < 500 | 163 to 171
CC(C)(C)NS(=O)(=O)c1ccc(-c2c(C#N)c3cc(C4CC4)cnc3n2C2CCC2)cc1 [Cpd 125, N-tert-butyl-4-(3-cyano-1-cyclobutyl-5-cyclopropyl-1H-pyrrolo[2,3-b]pyridin-2-yl)benzenesulfonamide] | < 500 | 210 to 215
CC1(NS(=O)(=O)c2ccc(-c3c(C#N)c4cc(C5CC5)cnc4n3C3CCC3)cc2)CC1 [Cpd 127, 4-(3-cyano-1-cyclobutyl-5-cyclopropyl-1H-pyrrolo[2,3-b]pyridin-2-yl)-N-(1-methylcyclopropyl)benzenesulfonamide] | < 500 | 152 to 161
CC1(NS(=O)(=O)c2ccc(-c3c(C#N)c4cc(C5CC5)cnc4n3C3CCC3)nc2)CC1 [Cpd 128, 6-(3-cyano-1-cyclobutyl-5-cyclopropyl-1H-pyrrolo[2,3-b]pyridin-2-yl)-N-(1-methylcyclopropyl)pyridine-3-sulfonamide] | < 500 | 178 to 185
CC1(NS(=O)(=O)c2cnc(-c3c(C#N)c4cc(C5CC5)cnc4n3C3CCC3)nc2)CC1 [Cpd 129, 2-(3-cyano-1-cyclobutyl-5-cyclopropyl-1H-pyrrolo[2,3-b]pyridin-2-yl)-N-(1-methylcyclopropyl)pyrimidine-5-sulfonamide] | < 500 | 161 to 169
N#Cc1c(-c2ccc(S(=O)(=O)NC(CF)CF)cc2)n(C2CCC2)c2ncc(C3CC3)cc12 [Cpd 130, 4-(3-cyano-1-cyclobutyl-5-cyclopropyl-1H-pyrrolo[2,3-b]pyridin-2-yl)-N-(1,3-difluoropropan-2-yl)benzenesulfonamide] | < 500 | 225 to 230
N#Cc1c(-c2ncc(S(=O)(=O)NC(CF)CF)cn2)n(C2CCC2)c2ncc(C3CC3)cc12 [Cpd 132, 2-(3-cyano-1-cyclobutyl-5-cyclopropyl-1H-pyrrolo[2,3-b]pyridin-2-yl)-N-(1,3-difluoropropan-2-yl)pyrimidine-5-sulfonamide] | < 500 | 189 to 197
N#Cc1c(-c2ccc(S(=O)(=O)NC3CC3)cn2)n(C2CCC2)c2ncc(C3CC3)cc12 [Cpd 133, 6-(3-cyano-1-cyclobutyl-5-cyclopropyl-1H-pyrrolo[2,3-b]pyridin-2-yl)-N-cyclopropylpyridine-3-sulfonamide] | < 500 | 169 to 174
N#Cc1c(-c2ccc(S(=O)(=O)NC3CCC3)cn2)n(C2CCC2)c2ncc(C3CC3)cc12 [Cpd 134, 6-(3-cyano-1-cyclobutyl-5-cyclopropyl-1H-pyrrolo[2,3-b]pyridin-2-yl)-N-cyclobutylpyridine-3-sulfonamide] | < 500 | 189 to 197
CC(C)NS(=O)(=O)c1cnc(-c2c(C#N)c3cc(C4CC4)cnc3n2C2CCC2)nc1 [Cpd 136, 2-(3-cyano-1-cyclobutyl-5-cyclopropyl-1H-pyrrolo[2,3-b]pyridin-2-yl)-N-(propan-2-yl)pyrimidine-5-sulfonamide] | < 500 | 187 to 195
Cc1ccc2c(C#N)c(-c3ncc(S(=O)(=O)N[C@@H](C)C(F)(F)F)cn3)n(C3CCC3)c2n1 [Cpd 137, 2-(3-cyano-1-cyclobutyl-6-methyl-1H-pyrrolo[2,3-b]pyridin-2-yl)-N-[(2S)-1,1,1-trifluoropropan-2-yl]pyrimidine-5-sulfonamide] | < 500 | 207 to 212
Cc1ccc2c(C#N)c(-c3ncc(S(=O)(=O)N[C@H](C)C(F)(F)F)cn3)n(C3CCC3)c2n1 [Cpd 138, 2-(3-cyano-1-cyclobutyl-6-methyl-1H-pyrrolo[2,3-b]pyridin-2-yl)-N-[(2R)-1,1,1-trifluoropropan-2-yl]pyrimidine-5-sulfonamide] | 500 to 2000 | 205 to 209
Cc1ccc2c(C#N)c(-c3ccc(S(=O)(=O)NC4(C(F)(F)F)CC4)cc3)n(C3CCC3)c2n1 [Cpd 140, 4-(3-cyano-1-cyclobutyl-6-methyl-1H-pyrrolo[2,3-b]pyridin-2-yl)-N-[1-(trifluoromethyl)cyclopropyl]benzenesulfonamide] | 500 to 2000 | 205 to 212
Cc1ccc2c(C#N)c(-c3ccc(S(=O)(=O)NC(C)(C)C)cc3)n(C3CCC3)c2n1 [Cpd 141, N-tert-butyl-4-(3-cyano-1-cyclobutyl-6-methyl-1H-pyrrolo[2,3-b]pyridin-2-yl)benzenesulfonamide] | 500 to 2000 | 194 to 200
Cc1ccc2c(C#N)c(-c3ccc(S(=O)(=O)NC(C)(C)C)cn3)n(C3CCC3)c2n1 [Cpd 142, N-tert-butyl-6-(3-cyano-1-cyclobutyl-6-methyl-1H-pyrrolo[2,3-b]pyridin-2-yl)pyridine-3-sulfonamide] | < 500 | 181 to 187
Cc1ccc2c(C#N)c(-c3ccc(S(=O)(=O)NC4(C)CC4)cc3)n(C3CCC3)c2n1 [Cpd 143, 4-(3-cyano-1-cyclobutyl-6-methyl-1H-pyrrolo[2,3-b]pyridin-2-yl)-N-(1-methylcyclopropyl)benzenesulfonamide] | < 500 | 200 to 207
Cc1ccc2c(C#N)c(-c3ncc(S(=O)(=O)NC4(C)CC4)cn3)n(C3CCC3)c2n1 [Cpd 144, 2-(3-cyano-1-cyclobutyl-6-methyl-1H-pyrrolo[2,3-b]pyridin-2-yl)-N-(1-methylcyclopropyl)pyrimidine-5-sulfonamide] | < 500 | 224 to 232
